The source of these data is paper PMC4153658, “A Pentasymmetric Open Channel Blocker for Cys-Loop Receptor Channels” (PLoS ONE, 2014).

Several values for one entry are separate records, joined by “and”; a condition that tells them apart may be missing. Equal values may be shown once. Read-outs that look alike come from different tables or passages of the source.

Assay [1] has as its target T1, α1β2γ2 rat GABAA receptors (Rattus norvegicus, UniProt P18508+P62813+P63138).
T1 construct: expressed in transfected cells; host or cells: Xenopus laevis oocytes, cRNA injection
Format: cell-based. To be noted: for IC50: GABA EC10. The procedure:
(§1) Capped cRNAs were synthesized from the linearized plasmids. A poly-A tail of about 400 residues was added to each transcript using yeast poly-A polymerase. The concentration of the cRNA was quantified on a formaldehyde gel using Radiant Red stain for visualization of the RNA. Known concentrations of RNA ladder were loaded as standard on the same gel. cRNAs were precipitated in ethanol/isoamylalcohol 19∶1, the dried pellet dissolved in water and stored at −80°C. Xenopus oocytes were prepared, injected and defollicated as described previously (Research approved by the Kantonstierarzt, Kantonaler Veterinärdienst Bern (Animal research permit BE98/12)). Briefly, Xenopus laevis oocytes were injected with 50 nL of the cRNA solution containing wild type or mutated α1, β2 and γ2 subunits at a concentration of 10 nM: 10 nM: 50 nM and then incubated in modified Barth's solution at 18°C for at least 24 h before the measurements. […] Currents were measured using a home-built two-electrode voltage clamp amplifier in combination with a XY-recorder or digitized using a PowerLab 2/20 (AD Instruments) using the computer program Chart. Tests with a model oocyte were performed to ensure linearity in the larger current range. […] Similar experiments were performed with picrotoxin. Due to the difficulty of washing out picrotoxin out from the oocytes two different oocytes were used to test the inhibition before and after the treatment with the cysteine reactive compound. Inhibition after treatment was divided by % inhibition before treatment. To test the ability of PCCP^− to protect the engineered cysteines from covalent modification by MTSET^+, we used the same sequence of perfusion except that MTSET^+ was co-applied with 1 mM PCCP^−. Results were obtained on 3–4 single oocytes for each receptor.

Assay [2] addresses T2, α1A253Cβ2γ2 GABAA receptor (Rattus norvegicus, UniProt P18508+P62813+P63138, A280C).
T2 construct: expressed in transfected cells; host or cells: Xenopus laevis oocytes, cRNA injection
Nature of the assay: Two-electrode voltage clamp, mutant α1A253Cβ2γ2 in Xenopus oocytes. To be noted: read-out: IC50 mean ± SD for inhibition of GABA-activated current. Format: cell-based. The procedure:
as §1, with “Due to the difficulty of washing out picrotoxin out from the oocytes two different oocytes were used to test the inhibition before and after the treatment with the cysteine reactive compound. Inhibition after treatment was divided by % inhibition before treatment. To test the ability of PCCP^− to protect the engineered cysteines from covalent modification by MTSET^+, we used the same sequence of perfusion except that MTSET^+ was co-applied with 1 mM PCCP^−. Results were obtained on 3–4 single oocytes for each receptor.” left out
(In general: Two-electrode voltage clamp holds a large cell at a set potential and records current.)

The target in assay [3] is T3, α1V256Cβ2γ2 GABAA receptor (Rattus norvegicus, UniProt P18508+P62813+P63138, V283C).
T3 construct: expressed in transfected cells; host or cells: Xenopus laevis oocytes, cRNA injection
The assay is described as follows: Two-electrode voltage clamp, mutant α1V256Cβ2γ2 in Xenopus oocytes. Format: cell-based. Conditions: for IC50: read-out: IC50 mean ± SD for inhibition of GABA-activated current. As for the experimental part: as §1

Assay [4] deals with T4, α1T260Cβ2γ2 GABAA receptor (Rattus norvegicus, UniProt P18508+P62813+P63138, T287C).
T4 construct: expressed in transfected cells; host or cells: Xenopus laevis oocytes, cRNA injection
Format: cell-based. To be noted: read-out: IC50 mean ± SD for inhibition of GABA-activated current. As for the experimental part:
as §1

The test system of assay [5] is α1T260Cβ2γ2 GABAA receptor. Format: cell-based, rat. The procedure:
as §1

The target of assay [6] is T5, α1T261Cβ2γ2 GABAA receptor (Rattus norvegicus, UniProt P18508+P62813+P63138, T288C).
T5 construct: expressed in transfected cells; host or cells: Xenopus laevis oocytes, cRNA injection
The assay is described as follows: Two-electrode voltage clamp, mutant α1T261Cβ2γ2 in Xenopus oocytes. The format is cell-based. Conditions: read-out: IC50 mean ± SD for inhibition of GABA-activated current. As for the experimental part:
as §1, with “Due to the difficulty of washing out picrotoxin out from the oocytes two different oocytes were used to test the inhibition before and after the treatment with the cysteine reactive compound. Inhibition after treatment was divided by % inhibition before treatment. To test the ability of PCCP^− to protect the engineered cysteines from covalent modification by MTSET^+, we used the same sequence of perfusion except that MTSET^+ was co-applied with 1 mM PCCP^−. Results were obtained on 3–4 single oocytes for each receptor.” left out

For assay [7], the target named is T6, α1L263Cβ2γ2 GABAA receptor (Rattus norvegicus, UniProt P18508+P62813+P63138, L290C).
T6 construct: expressed in transfected cells; host or cells: Xenopus laevis oocytes, cRNA injection
Nature of the assay: Two-electrode voltage clamp, mutant α1L263Cβ2γ2 in Xenopus oocytes. The format is cell-based. The procedure: as §1, with “Due to the difficulty of washing out picrotoxin out from the oocytes two different oocytes were used to test the inhibition before and after the treatment with the cysteine reactive compound. Inhibition after treatment was divided by % inhibition before treatment. To test the ability of PCCP^− to protect the engineered cysteines from covalent modification by MTSET^+, we used the same sequence of perfusion except that MTSET^+ was co-applied with 1 mM PCCP^−. Results were obtained on 3–4 single oocytes for each receptor.” left out

The target in assay [8] is T7, α1T264Cβ2γ2 GABAA receptor (Rattus norvegicus, UniProt P18508+P62813+P63138, T291C).
T7 construct: expressed in transfected cells; host or cells: Xenopus laevis oocytes, cRNA injection
Nature of the assay: Two-electrode voltage clamp, mutant α1T264Cβ2γ2 in Xenopus oocytes. Format: cell-based. The procedure:
as §1, with “Due to the difficulty of washing out picrotoxin out from the oocytes two different oocytes were used to test the inhibition before and after the treatment with the cysteine reactive compound. Inhibition after treatment was divided by % inhibition before treatment. To test the ability of PCCP^− to protect the engineered cysteines from covalent modification by MTSET^+, we used the same sequence of perfusion except that MTSET^+ was co-applied with 1 mM PCCP^−. Results were obtained on 3–4 single oocytes for each receptor.” left out

Assay [9] deals with T8, α1T267Cβ2γ2 GABAA receptor (Rattus norvegicus, UniProt P18508+P62813+P63138, T294C).
T8 construct: expressed in transfected cells; host or cells: Xenopus laevis oocytes, cRNA injection
The assay is described as follows: Two-electrode voltage clamp, mutant α1T267Cβ2γ2 in Xenopus oocytes. Format: cell-based. The procedure:
as §1, with “Due to the difficulty of washing out picrotoxin out from the oocytes two different oocytes were used to test the inhibition before and after the treatment with the cysteine reactive compound. Inhibition after treatment was divided by % inhibition before treatment. To test the ability of PCCP^− to protect the engineered cysteines from covalent modification by MTSET^+, we used the same sequence of perfusion except that MTSET^+ was co-applied with 1 mM PCCP^−. Results were obtained on 3–4 single oocytes for each receptor.” left out

For assay [10], the target named is T9, α1β2γ2 rat GABAA receptors (Rattus norvegicus).
T9 construct: expressed in transfected cells; host or cells: Xenopus laevis oocytes, cRNA injection
Nature of the assay: Concentration inhibition curve, first receptor named in b22 / Figure 4A. Format: cell-based. Conditions: GABA EC10; n = 4; receptor printed as α1β2γ2. As for the experimental part: as §1, with “Due to the difficulty of washing out picrotoxin out from the oocytes two different oocytes were used to test the inhibition before and after the treatment with the cysteine reactive compound. Inhibition after treatment was divided by % inhibition before treatment. To test the ability of PCCP^− to protect the engineered cysteines from covalent modification by MTSET^+, we used the same sequence of perfusion except that MTSET^+ was co-applied with 1 mM PCCP^−. Results were obtained on 3–4 single oocytes for each receptor.” left out

For assay [11], the target named is T10, α1β2δ rat GABAA receptors (Rattus norvegicus, UniProt P18506+P62813+P63138).
T10 construct: expressed in transfected cells; host or cells: Xenopus laevis oocytes, cRNA injection
Nature of the assay: Concentration inhibition curve, α1β2δ GABAA receptors in Xenopus oocytes. Format: cell-based. Conditions: GABA EC10; n = 4.

Assay [12] deals with Glycine homomeric receptors. The assay is described as follows: Inhibition of homomeric glycine receptors expressed in Xenopus oocytes. The format is cell-based. To be noted: compared with GABAA receptors.
Assay [13] concerns Glycine heteromeric receptors. Nature of the assay: Inhibition of heteromeric glycine receptors expressed in Xenopus oocytes. The format is cell-based. To be noted: compared with GABAA receptors.
The next assay deals with ELIC (Dickeya chrysanthemi, UniProt P0C7B7). Conditions: read-out: Concentration required for half-maximal inhibition. The procedure: as §1, with “Due to the difficulty of washing out picrotoxin out from the oocytes two different oocytes were used to test the inhibition before and after the treatment with the cysteine reactive compound. Inhibition after treatment was divided by % inhibition before treatment. To test the ability of PCCP^− to protect the engineered cysteines from covalent modification by MTSET^+, we used the same sequence of perfusion except that MTSET^+ was co-applied with 1 mM PCCP^−. Results were obtained on 3–4 single oocytes for each receptor.” left out

For assay [14], the system named is RDL Drosophila GABAA receptors, mutation A302S versus wild type. Nature of the assay: Concentration inhibition curves in wild type and mutant RDL Drosophila GABAA receptor. Format: cell-based. Conditions: GABA EC10.
In the next assay the test system is non-injected oocytes. The assay is described as follows: Currents induced in non-injected Xenopus oocytes. The format is cell-based, Xenopus laevis. Conditions: holding potential −80 mV.
For assay [15], the system named is cysteine mutant α1β2γ2 GABAA receptors. Nature of the assay: Protection of engineered cysteines from covalent modification by MTSET^+ + GABA. The format is cell-based, rat. Conditions: 1 mM inhibitor present during MTSET^+ + GABA application. As for the experimental part: as §1, with “Due to the difficulty of washing out picrotoxin out from the oocytes two different oocytes were used to test the inhibition before and after the treatment with the cysteine reactive compound. Inhibition after treatment was divided by % inhibition before treatment. To test the ability of PCCP^− to protect the engineered cysteines from covalent modification by MTSET^+, we used the same sequence of perfusion except that MTSET^+ was co-applied with 1 mM PCCP^−. Results were obtained on 3–4 single oocytes for each receptor.” left out

Where [16] appears, read: wild type, end of 1 min co-application, −80 mV, read-out: IC50 mean ± SD for inhibition of GABA-activated current.
[17] abbreviates: read-out: IC50 mean ± SD for inhibition of GABA-activated current.

In the case of `C[N+](C)(C)CCSS(C)(=O)=O` [MTSET^+, reference compound], the “Effect of treatment with cysteine reactive compound on wild type receptors” value in assay [1] (wild type, preliminary experiments) is “unaffected”.
On to `N#CC1=C(C#N)C(C#N)C(C#N)=C1C#N` [PCCP^−, pentacyanocyclopentdienyl anion], for which the “Concentrations inducing an open-channel block” value in [1] (GABA EC1, apparent desensitization and off-current) is recorded as above 1 µM. Besides, in [1] (compounds 1–4 tested), the “Inhibition of recombinant α1β2γ2 GABAA receptors, preliminary evaluation” value was “highly active”. The “Concentrations at which currents were stimulated” value in assay [1] (currents elicited by low GABA (EC1), highly variable between oocytes) lay within 0.3 to 10 µM. Besides, in assay [1] (estimated with Woodhull equation from IC50 at −120, −80, −40 mV), the “δ, fraction of the voltage field sensed by the blocker from the outside of the membrane” value is on record as around 0.7. Also, the IC50 is 1800 ± 800 nM in assay [1] (membrane potential −40 mV, n = 3, read-out: IC50); 6300 ± 1300 nM in assay [1] (membrane potential −80 mV, voltage-dependence experiment, n = 3, read-out: IC50); 16200 ± 1300 nM in assay [1] (membrane potential −120 mV, n = 3, read-out: IC50); 2600 nM and 2580 nM in assay [1] (setting [16]); 2630 ± 310 nM in assay [2]; 62200 ± 22400 nM in assay [3]. In addition, the IC50 in [4] amounted to 850 ± 460 nM; in [6], 46400 ± 7250 nM; in assay [8] (setting [17]), 3150 ± 480 nM; in assay [9] (setting [17]), 770 ± 110 nM; in assay [10], 12500 ± 4800 nM; in assay [11] it was 710 ± 280 nM. Further, at ELIC, the IC50 is around 100000 nM. Besides, the “Shift of the GABA concentration response curve” value in [1] (presence of 2 µM or 10 µM PCCP^−, currents after 1 min GABA) was “leftward shift”. For the same molecule, the “Effect of MTSET^+ + GABA treatment on the affinity for PCCP^−” value in [1] (wild type, treatment applied for 1 min) is recorded as “no effect”. Further, the “Change in % inhibition after MTSET^+ + GABA treatment” value in assay [3] is listed as “significant increase”; in [5], “significant increase”; in assay [7] (printed α1T263Cβ2γ2, 5 mM MTSET^+ + 100 µM GABA, inhibitor at about IC50), “significant increase”; in [8], “significant increase”; in [9], “significant increase”. In addition, in [7], the “Change in ratio of % inhibition after/before MTSET^+ treatment in the absence of GABA” value is listed as “significant increase”. Moreover, the “Inhibition by PCCP^−” value in assay [12] and in assay [13] was “similarly inhibited” in each case. For the same molecule, the “Reduction in sensitivity (difference in IC50) between wild type and mutant receptors” value in assay [14] was “about 2 fold”. Moreover, in the assay on non-injected oocytes, the “Concentration inducing a current in non-injected oocytes” value is recorded as at least 10 µM. Further, in assay [15], the “Prevention of the MTSET^+ + GABA induced change in inhibitor sensitivity” value is listed as “could be prevented”.
Take picrotoxin [reference compound]: the IC50 is 2020 ± 890 nM in assay [1] (setting [16]); 740 ± 360 nM in [3]; 1310 ± 410 nM in [4] (α1T260C mutant, GABA EC10, −80 mV, before MTSET^+ treatment). The “Change in % inhibition after MTSET^+ + GABA treatment” value is “significant decrease” in [3] and “significant decrease” in assay [5] (α1T260C mutant, 5 mM MTSET^+ + 100 µM GABA, inhibitor at about IC50). In addition, the “Reduction in sensitivity (difference in IC50) between wild type and mutant receptors” value in [14] amounted to 7 fold. Further, in assay [15], the “Prevention of the MTSET^+ + GABA induced change in inhibitor sensitivity” value is “could not be prevented”.
